The GI50 is the concentration at which growth is held to half of that of the control.

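Values below derive from 48-hour exposures of cells grown in 96-well plates, with endpoints linearly interpolated between the two concentrations bracketing the appropriate inhibition level. GI50 = concentration required for 50% inhibition of growth.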 Activity calls are given as the source filed them. Cut-off read from the data, not from the text of the source: active = GI50 up to about 1.1 µM and inactive = higher.

We go through 10 compounds from ChEMBL document CHEMBL1201862, “PubChem BioAssay data set” (2004).

Test systems include OVCAR-5; HOP-62; SN12C; MDA-MB-231; HT-29; RXF 393; SNB-75; SK-OV-3; OVCAR-8; SK-MEL-2; UACC-257; ACHN; RPMI-8226; SK-MEL-28; SW-620; BT-549; EKVX; T47D; A549; HL-60.
Holding throughout (experiment): DTP human tumour cell line panel, 48 h

In the case of `Cc1cc(Cl)ccc1OCC(=O)Nc1nc(N)nc(N)n1`, the GI50 in the assay on OVCAR-5, with HOP-62, with SN12C, in the assay with MDA-MB-231, in the assay on HT-29 and in the assay on RXF 393 was > 100 µM (inactive) in each case. Besides, the GI50 in the assay on SNB-75, in the assay on SK-OV-3, in the assay with OVCAR-8, with SK-MEL-2, in the assay on UACC-257 and in the assay on ACHN was > 100 µM (inactive) throughout. Moreover, the GI50 in the assay with RPMI-8226, in the assay on SK-MEL-28, with SW-620, in the assay on BT-549, with EKVX and with T47D was > 100 µM (inactive) each time. For the same compound, the GI50 with A549 and with HL-60 was > 100 µM (inactive) throughout.
Regarding `CC1OC(OC2C(OC(=O)[C@]34CCC(C)(C)C[C@H]3C3=CC[C@@H]5[C@@]6(C)CC[C@H](OC7OC(C(=O)O)C(O)C(O)C7O)C(C)(C)[C@@H]6CC[C@@]5(C)[C@]3(C)C[C@H]4O)OCC(O)C2O)C(O)C(OC2OCC(O)(CO)C2O)C1OC1OCC(O)C(O)C1O` (stereo not given in full), the GI50 was 10.8 µM (inactive) in the assay with OVCAR-5; 16.1 µM (inactive) in the assay on HOP-62; 3.37 µM (inactive) in the assay with SN12C; 3.43 µM (inactive) in the assay on MDA-MB-231; 3.53 µM (inactive) in the assay with HT-29; 15.2 µM (inactive) with RXF 393. For the same compound, the GI50 with SNB-75 was 17.7 µM (inactive); in the assay with SK-OV-3 it was 15.6 µM (inactive); in the assay on OVCAR-8, 17.1 µM (inactive); in the assay with SK-MEL-2, 6.7 µM (inactive); with UACC-257 it was 11.1 µM (inactive); with ACHN it was 5.15 µM (inactive). Further, the GI50 in the assay with RPMI-8226 was 7.23 µM (inactive); with SK-MEL-28, 4.49 µM (inactive); with SW-620, 10.9 µM (inactive); in the assay on BT-549, 5.42 µM (inactive); with EKVX, 4.3 µM (inactive); with T47D, 8.47 µM (inactive). Further, the GI50 was 3.9 µM (inactive) in the assay with A549 and 3.19 µM (inactive) in the assay on HL-60.
As to `O=P(O)(O)CN1CCNCCN(CP(=O)(O)O)CC1`, the GI50 with OVCAR-5 is > 42.3 µM (inactive); in the assay with HOP-62 it was > 100 µM (inactive); in the assay with SN12C, > 100 µM (inactive); in the assay with MDA-MB-231 it was 36 µM (inactive); with HT-29, 4.26 µM (inactive); with RXF 393, 28.8 µM (inactive). Moreover, the GI50 is > 54.5 µM (inactive) in the assay on SNB-75; 23.7 µM (inactive) with SK-OV-3; 28.4 µM (inactive) in the assay with OVCAR-8; 46 µM (inactive) with SK-MEL-2; > 55.3 µM (inactive) in the assay with UACC-257; > 100 µM (inactive) in the assay with ACHN. Moreover, the GI50 in the assay on RPMI-8226 is 20.4 µM (inactive); with SK-MEL-28, > 100 µM (inactive); in the assay on SW-620, 19.3 µM (inactive); with BT-549 it was > 100 µM (inactive); with EKVX, > 80.2 µM (inactive); in the assay on T47D it was > 68.4 µM (inactive). For the same compound, the GI50 in the assay with A549 is 15.2 µM (inactive); in the assay on HL-60 it was 4.21 µM (inactive).
Take `COc1ccc(C(C)NNC(=O)c2ccncc2)cc1OC` (stereo not given): the GI50 in the assay on OVCAR-5, in the assay on HOP-62, in the assay with SN12C, in the assay on MDA-MB-231, with HT-29 and in the assay on RXF 393 was > 100 µM (inactive) in each case. In addition, the GI50 with SNB-75 is > 100 µM (inactive); in the assay with SK-OV-3, 26.4 µM (inactive); with OVCAR-8 it was > 100 µM (inactive); in the assay on SK-MEL-2, > 100 µM (inactive); in the assay on UACC-257, > 100 µM (inactive); with ACHN it was > 100 µM (inactive). The GI50 in the assay with RPMI-8226, in the assay on SK-MEL-28, in the assay on SW-620, with BT-549, in the assay on EKVX and in the assay on T47D was > 100 µM (inactive) in each case. The GI50 in the assay with A549 and in the assay with HL-60 was > 100 µM (inactive) each time.
Consider `N=c1oc2ccc3ccccc3c2cc1-c1nc(O)c2ccccc2n1`, for which the GI50 was 96.6 µM (inactive) in the assay on OVCAR-5; 15.8 µM (inactive) with HOP-62; 74 µM (inactive) with SN12C; 24.1 µM (inactive) in the assay on MDA-MB-231; 13 µM (inactive) in the assay on HT-29; 10.6 µM (inactive) in the assay on RXF 393. Moreover, the GI50 with SNB-75 is 2.44 µM (inactive); in the assay on SK-OV-3, 19.9 µM (inactive); with OVCAR-8 it was 26.7 µM (inactive); in the assay on SK-MEL-2, 14.4 µM (inactive); in the assay on UACC-257, 42.5 µM (inactive); in the assay with ACHN, 11.1 µM (inactive). Moreover, the GI50 in the assay on RPMI-8226 is 42.6 µM (inactive); in the assay with SK-MEL-28 it was 95.7 µM (inactive); in the assay with SW-620, 36.8 µM (inactive); in the assay on BT-549, 15.1 µM (inactive); in the assay with EKVX it was 19.5 µM (inactive); in the assay with T47D it was 30.7 µM (inactive). Also, the GI50 with A549 is 20.7 µM (inactive); with HL-60, 8.73 µM (inactive).
With `N#Cc1cccc(Nc2ccccc2SSc2ccccc2Nc2cccc(C#N)c2)c1`, the GI50 in the assay with OVCAR-5 is 17.5 µM (inactive); with HOP-62 it was 11.9 µM (inactive); with SN12C, 7.59 µM (inactive); with MDA-MB-231, 12.2 µM (inactive); in the assay on HT-29, 11.4 µM (inactive); in the assay with RXF 393, > 10 µM (inactive). Also, the GI50 was 8.59 µM (inactive) with SNB-75; 13.5 µM (inactive) with SK-OV-3; 8.11 µM (inactive) with OVCAR-8; > 10 µM (inactive) in the assay on SK-MEL-2; 13.6 µM (inactive) in the assay with UACC-257; 8.73 µM (inactive) with ACHN. In addition, the GI50 with RPMI-8226 is 3.93 µM (inactive); in the assay with SK-MEL-28, 13.3 µM (inactive); with SW-620 it was 3.48 µM (inactive); in the assay with BT-549, > 10 µM (inactive); with EKVX it was 13.9 µM (inactive); in the assay on T47D it was 12.3 µM (inactive). Also, the GI50 in the assay with A549 was 11.3 µM (inactive); in the assay with HL-60, 4.76 µM (inactive).
Consider `CN(CCCCN1CCCC1)CCCCN(C)C(=O)Cc1ccc(Cl)c(Cl)c1`, for which the GI50 with OVCAR-5 was 21.9 µM (inactive); in the assay on HOP-62, 16.3 µM (inactive); in the assay on SN12C it was 19.1 µM (inactive); in the assay with MDA-MB-231, 10.1 µM (inactive); in the assay with HT-29, 3.85 µM (inactive); with RXF 393 it was 11.7 µM (inactive). The GI50 is 15 µM (inactive) in the assay with SNB-75; 23.6 µM (inactive) in the assay on SK-OV-3; 21.3 µM (inactive) in the assay on OVCAR-8; 6.07 µM (inactive) with SK-MEL-2; 2.52 µM (inactive) with UACC-257; 20.7 µM (inactive) with ACHN. The GI50 in the assay on RPMI-8226 was 5.33 µM (inactive); with SK-MEL-28 it was 2 µM (inactive); with SW-620, 18.8 µM (inactive); with BT-549, 18.5 µM (inactive); in the assay with EKVX, 20.5 µM (inactive); in the assay on T47D, 20.2 µM (inactive). Further, the GI50 is 14.4 µM (inactive) in the assay on A549 and 17.5 µM (inactive) with HL-60.
Consider `c1ccc2nc(CCC3CCCCN3)ccc2c1` (stereo not given), for which the GI50 is > 100 µM (inactive) with OVCAR-5; 85.5 µM (inactive) with HOP-62; > 100 µM (inactive) with SN12C; > 100 µM (inactive) in the assay with MDA-MB-231; > 100 µM (inactive) in the assay on HT-29; > 100 µM (inactive) in the assay on RXF 393. Also, the GI50 was 92.3 µM (inactive) in the assay with SNB-75; > 100 µM (inactive) in the assay on SK-OV-3; > 100 µM (inactive) in the assay on OVCAR-8; > 100 µM (inactive) in the assay on SK-MEL-2; 42.7 µM (inactive) with UACC-257; > 100 µM (inactive) in the assay with ACHN. For the same compound, the GI50 in the assay on RPMI-8226 is 39.9 µM (inactive); in the assay on SK-MEL-28 it was > 100 µM (inactive); in the assay on SW-620, > 100 µM (inactive); in the assay on BT-549, 61.7 µM (inactive); in the assay with EKVX, 42.2 µM (inactive); in the assay with T47D, 54.5 µM (inactive). The GI50 in the assay on A549 was > 100 µM (inactive); in the assay on HL-60 it was 67.9 µM (inactive).
As to `COc1cc(OC)cc(C(=O)NC2=C(Cl)C(=O)c3ccccc3C2=O)c1`, the GI50 in the assay on OVCAR-5 was 4.92 µM (inactive); in the assay with HOP-62 it was 12.8 µM (inactive); in the assay on SN12C, 3.15 µM (inactive); with MDA-MB-231, 4.08 µM (inactive); with HT-29, 4.67 µM (inactive); with RXF 393, 1.04 µM (active). For the same compound, the GI50 in the assay on SNB-75 is 2.67 µM (inactive); with SK-OV-3 it was 2.49 µM (inactive); in the assay with OVCAR-8 it was 3.1 µM (inactive); in the assay on SK-MEL-2, 1.65 µM (inactive); in the assay on UACC-257, 1.99 µM (inactive); in the assay with ACHN, 0.78 µM (active). In addition, the GI50 with RPMI-8226 was 0.706 µM (active); in the assay on SK-MEL-28 it was 2.96 µM (inactive); in the assay with SW-620, 1.01 µM (active); in the assay on BT-549, 2.27 µM (inactive); in the assay with EKVX it was 9.75 µM (inactive); in the assay on T47D it was 1.46 µM (inactive). Moreover, the figures for the GI50 in the assay on A549 and in the assay with HL-60 were 4.34 µM (inactive) and 0.189 µM (active), respectively.
As to `C=CC(C1=CC(=O)C(OC)=CC1=O)c1ccccc1` (stereo not given) [4-METHOXYDALBERGIONE], the GI50 was 20.3 µM (inactive) with OVCAR-5; 16.6 µM (inactive) with HOP-62; 14.3 µM (inactive) with SN12C; 6.97 µM (inactive) in the assay on MDA-MB-231; 19.3 µM (inactive) in the assay with HT-29; 15.6 µM (inactive) in the assay on RXF 393. Besides, the GI50 with SNB-75 is 18.1 µM (inactive); in the assay on SK-OV-3, 17.3 µM (inactive); with OVCAR-8, 20.5 µM (inactive); in the assay with SK-MEL-2 it was 12.6 µM (inactive); in the assay on UACC-257 it was 19.2 µM (inactive); with ACHN, 14.3 µM (inactive). In addition, the GI50 in the assay on RPMI-8226 was 9.64 µM (inactive); in the assay with SK-MEL-28 it was 15.5 µM (inactive); with SW-620 it was 19.5 µM (inactive); in the assay on BT-549 it was 15.5 µM (inactive); with EKVX, 16.1 µM (inactive); with T47D, 2.65 µM (inactive). The GI50 in the assay with A549 is 25.4 µM (inactive); in the assay on HL-60 it was 2.38 µM (inactive).
